Measurements published in patent US20060263802A1 (priority 2003, published 2006).

Experiments:
Format in all cases: binding
[1] = system: human monoclonal antibody CRJB
[2] = system: human monoclonal antibody CRJB; remark: listed apart in the source
[3] = system: human monoclonal antibody CR57
[4] = system: human monoclonal antibody CRJA
[5] = system: human monoclonal antibody CR57; remark: listed apart in the source
[6] = system: human monoclonal antibody CRJA; remark: listed apart in the source

Row | Sequence | Binding of CRJB to linear peptide (PEPSCAN-ELISA signal) [1] | Binding of CRJB (10 μg/ml) to looped/cyclic peptide (PEPSCAN-ELISA) [2] | Binding of CR57 to linear peptide (PEPSCAN-ELISA signal) [3] | Binding of CRJA to linear peptide (PEPSCAN-ELISA signal) [4] | Binding of CR57 (10 μg/ml) to looped/cyclic peptide (PEPSCAN-ELISA) [5] | Binding of CRJA (10 μg/ml) to looped/cyclic peptide (PEPSCAN-ELISA) [6] | Binding of human monoclonal antibody CRJB to linear peptide (PEPSCAN-ELISA signal) [1] | Binding of CRJB to looped/cyclic peptide (PEPSCAN-ELISA signal) [2] | Binding of human monoclonal antibody CR57 to linear peptide (PEPSCAN-ELISA signal) [3] | Binding of human monoclonal antibody CRJA to linear peptide (PEPSCAN-ELISA signal) [4] | Binding of CR57 to looped/cyclic peptide (PEPSCAN-ELISA signal) [5] | Binding of CRJA to looped/cyclic peptide (PEPSCAN-ELISA signal) [6] | Binding of CRJB (10 μg/ml) to looped/cyclic peptide (PEPSCAN-ELISA signal) [2] | Binding of CR57 (10 μg/ml) to looped/cyclic peptide (PEPSCAN-ELISA signal) [5] | Binding of CRJA (10 μg/ml) to looped/cyclic peptide (PEPSCAN-ELISA signal) [6]
1 | VEELVRKREECLDAL | 111 | 27 | 58 | 84 | 55 | 69 |  |  |  |  |  |  |  |  | 
2 | VEVHLPDVHNQVSGV |  |  |  |  |  |  | 141 | 104 | 106 | 117 | 138 | 120 |  |  | 
3 | VFFNGIILGPDGNVL | 132 | 93 | 55 | 82 | 110 | 83 |  |  |  |  |  |  |  |  | 
4 | VFKDGDEAEDFVEVH |  |  |  |  |  |  | 106 | 125 | 100 | 125 | 168 | 104 |  |  | 
5 | VFPSGKCSGVAVSST | 114 |  | 74 | 68 |  |  |  |  |  |  |  |  | 75 | 79 | 55
6 | VGGRCHPHVNGVFFN | 136 | 64 | 120 | 92 | 143 | 106 |  |  |  |  |  |  |  |  | 
7 | VGYILAIKMNGFTCT | 93 |  | 77 | 70 |  |  |  |  |  |  |  |  | 86 | 97 | 105
8 | VGYVTTTFKRKHFRP | 113 |  | 75 | 80 |  |  |  |  |  |  |  |  | 85 | 117 | 100
9 | VHLPDVHNQVSGVDL |  |  |  |  |  |  | 114 | 94 | 110 | 104 | 105 | 92 |  |  | 
10 | VHNQVSGVDLGLPNW |  |  |  |  |  |  | 119 | 106 | 100 | 120 | 125 | 106 |  |  | 
11 | VHPLADPSTVFKDGD |  |  |  |  |  |  | 138 | 79 | 98 | 111 | 107 | 99 |  |  | 
12 | VIISPSVADLDPYDR | 98 |  | 59 | 47 |  |  |  |  |  |  |  |  | 82 | 90 | 100
13 | VIPLVHPLADPSTVF | 141 | 92 | 69 | 92 | 77 | 84 |  |  |  |  |  |  |  |  | 
14 | VKTTKESLVIISPSV | 120 |  | 71 | 96 |  |  |  |  |  |  |  |  | 92 | 98 | 100
15 | VLGLRLMDGTWVAMQ | 141 | 106 | 90 | 107 | 94 | 108 |  |  |  |  |  |  |  |  | 
